Where only a bound is given, the exact number is not on record here.

For the experiment, the target named is T1, human ΔF508-CFTR (Homo sapiens, UniProt P13569, DEL508-508).
T1 construct: expressed in transfected cells
T1 sequence (P13569 with tags, fused parts or gaps DEL508-508): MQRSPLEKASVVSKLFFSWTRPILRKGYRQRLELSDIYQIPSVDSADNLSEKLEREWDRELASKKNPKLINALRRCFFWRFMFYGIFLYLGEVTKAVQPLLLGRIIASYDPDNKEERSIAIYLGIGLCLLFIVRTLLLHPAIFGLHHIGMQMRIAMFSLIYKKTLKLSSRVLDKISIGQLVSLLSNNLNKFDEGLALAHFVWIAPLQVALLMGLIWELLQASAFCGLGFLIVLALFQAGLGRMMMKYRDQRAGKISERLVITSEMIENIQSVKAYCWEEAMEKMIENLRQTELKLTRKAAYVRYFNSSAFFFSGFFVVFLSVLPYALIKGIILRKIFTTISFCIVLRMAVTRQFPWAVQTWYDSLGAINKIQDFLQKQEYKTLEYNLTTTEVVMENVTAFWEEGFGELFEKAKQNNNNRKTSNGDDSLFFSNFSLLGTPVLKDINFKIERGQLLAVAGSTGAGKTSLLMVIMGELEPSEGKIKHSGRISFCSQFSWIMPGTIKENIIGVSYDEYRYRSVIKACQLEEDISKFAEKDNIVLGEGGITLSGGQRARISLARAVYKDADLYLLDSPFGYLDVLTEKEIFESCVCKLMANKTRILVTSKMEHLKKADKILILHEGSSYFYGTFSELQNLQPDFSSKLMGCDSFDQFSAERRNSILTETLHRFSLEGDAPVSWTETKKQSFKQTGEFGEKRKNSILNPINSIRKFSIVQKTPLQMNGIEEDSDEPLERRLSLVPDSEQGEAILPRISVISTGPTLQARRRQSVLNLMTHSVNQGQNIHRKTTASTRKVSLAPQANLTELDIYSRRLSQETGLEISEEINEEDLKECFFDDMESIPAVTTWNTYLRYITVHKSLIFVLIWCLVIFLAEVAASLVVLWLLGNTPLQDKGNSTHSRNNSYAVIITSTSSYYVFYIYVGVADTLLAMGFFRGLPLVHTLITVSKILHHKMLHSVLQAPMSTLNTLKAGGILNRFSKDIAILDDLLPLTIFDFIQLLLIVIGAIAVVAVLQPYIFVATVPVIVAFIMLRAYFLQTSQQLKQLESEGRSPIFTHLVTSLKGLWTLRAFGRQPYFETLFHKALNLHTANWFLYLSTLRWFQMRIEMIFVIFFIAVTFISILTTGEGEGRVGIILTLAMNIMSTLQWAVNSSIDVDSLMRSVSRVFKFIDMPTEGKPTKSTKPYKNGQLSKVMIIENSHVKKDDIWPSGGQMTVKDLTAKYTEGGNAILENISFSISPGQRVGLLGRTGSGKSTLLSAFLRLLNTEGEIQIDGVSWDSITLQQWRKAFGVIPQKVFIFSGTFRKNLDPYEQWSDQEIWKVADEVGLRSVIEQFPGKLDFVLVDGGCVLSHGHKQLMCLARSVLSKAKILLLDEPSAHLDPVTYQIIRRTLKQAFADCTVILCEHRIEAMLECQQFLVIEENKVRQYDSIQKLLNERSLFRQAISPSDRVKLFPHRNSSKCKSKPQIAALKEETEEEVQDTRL
In words: CFTR-YFP High Throughput Assay (YFP halide flux in FRT cells). The experiment is classed as cell-based. The conditions noted are these: FRT cells expressing human ΔF508-CFTR and YFP; forskolin stimulated. A digest of the protocol: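 FRT cells stably co-expressing human ΔF508-CFTR and halide-sensitive YFP-H148Q/I152L were treated with compound […] for 24–26 h at 37 °C (corrector mode), washed, then stimulated with 20 μM forskolin plus 30 μM potentiator P3 for 60–120 min at room temperature. Iodide-induced YFP quench (ex 500/em 540 nm) rates came from least-squares fitting.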
`Cc1ccc(-n2nc(C(=O)N(CC#N)c3ccccc3)c3c4ccccc4n(C)c3c2=O)cc1` [Example 105, N-(cyanomethyl)-5-methyl-4-oxo-N-phenyl-3-(p-tolyl)-4,5-dihydro-3H-pyridazino[4,5-b]indole-1-carboxamide]: the half-maximal effective concentration (EC50) (as a rule, the concentration that produces a half-maximal response) was < 10 µM.
The figure for `CCN(CC)C(=O)c1nn(-c2ccc(C)cc2)c(=O)c2c1c1ccccc1n2C` [Example 106, N,N-diethyl-5-methyl-4-oxo-3-(p-tolyl)-4,5-dihydro-3H-pyridazino[4,5-b]indole-1-carboxamide] is < 10 µM; for `CCN(C(=O)c1nn(-c2ccc(C)cc2)c(=O)c2c1c1ccccc1n2C)c1ccccn1` [Example 107, N-ethyl-5-methyl-4-oxo-N-(pyridin-2-yl)-3-(p-tolyl)-4,5-dihydro-3H-pyridazino[4,5-b]indole-1-carboxamide] it is < 10 µM.
Regarding `CCN(C(=O)c1nn(-c2ccc(C)cc2)c(=O)c2c1c1ccccc1n2C)c1cccnc1` [Example 108, N-ethyl-5-methyl-4-oxo-N-(pyridin-3-yl)-3-(p-tolyl)-4,5-dehydro-3H-pyridazino[4,5-b]indole-1-carboxamide], the half-maximal effective concentration (EC50) was < 10 µM.
The figure for `CCN(C(=O)c1nn(-c2ccccc2)c(=O)c2c1c1ccccc1n2C)c1ccncc1` [Example 109, N-ethyl-5-methyl-4-oxo-3-phenyl-N-(pyridin-4-yl)-4,5-dihydro-3H-pyridazino[4,5-b]indole-1-carboxamide] is < 10 µM; for `Cc1ccc(-n2nc(C(=O)N3CCCc4ccccc43)c3c4ccccc4n(C)c3c2=O)cc1` [Example 110, 5-methyl-1-(1,2,3,4-tetrahydroquinoline-1-carbonyl)-3-(p-tolyl)-3H-pyridazino[4,5-b]indol-4(5H)-one] it is < 10 µM; for `CCN(C(=O)c1nn(-c2ccc(C)cc2)c(=O)c2c1c1ccccc1n2C)C1CC1` [Example 111, N-cyclopropyl-N-ethyl-5-methyl-4-oxo-3-(p-tolyl)-4,5-dihydro-3H-pyridazino[4,5-b]indole-1-carboxamide] it is < 10 µM.
For `Cc1ccc(-n2nc(C(=O)N3CCN(Cc4ccccc4)CC3)c3c4ccccc4n(C)c3c2=O)cc1` [Example 112, 1-(4-benzylpiperazine-1-carbonyl)-5-methyl-3-(p-tolyl)-3H-pyridazino[4,5-b]indol-4(5H)-one], the EC50 is < 10 µM.
With `CCN(C(=O)c1nn(-c2ccccc2)c(=O)c2c1c1ccccc1n2C)c1ncccn1` [Example 113, N-ethyl-5-methyl-4-oxo-3-phenyl-N-(pyrimidin-2-yl)-4,5-dihydro-3H-pyridazino[4,5-b]indole-1-carboxamide], the EC50 is > 20 µM.
Turning to `Cc1ccc(-n2nc(C(=O)N(CC(=O)O)c3ccccc3)c3c4ccccc4n(C)c3c2=O)cc1` [Example 114, 2-(5-methyl-4-oxo-N-phenyl-3-(p-tolyl)-4,5-dihydro-3H-pyridazino[4,5-b]indole-1-carboxamido) acetic acid], the EC50 was > 20 µM.
The figure for `CCN(C(=O)c1nn(-c2ccccc2)c(=O)c2c1c1ccccc1n2C)c1ncnc2c1cnn2C` [Example 115, N-ethyl-5-methyl-N-(1-methyl-1H-pyrazolo[3,4-d]pyrimidin-4-yl)-4-oxo-3-phenyl-4,5-dihydro-3H-pyridazino[4,5-b]indole-1-carboxamide] is 10 to 20 µM; for `CCN(C(=O)c1nn(-c2ccccn2)c(=O)c2c1c1ccccc1n2C)c1ccccc1` [Example 118, N-ethyl-5-methyl-4-oxo-N-phenyl-3-(pyridin-2-yl)-4,5-dihydro-3H-pyridazino[4,5-b]indole-1-carboxamide] it is < 10 µM.
The figure for `CCN(C(=O)c1nn(-c2cccnc2)c(=O)c2c1c1ccccc1n2C)c1ccccc1` [Example 119] is < 10 µM.
With `CCN(C(=O)c1nn(-c2ccncc2)c(=O)c2c1c1ccccc1n2C)c1ccccc1` [Example 120, N-ethyl-5-methyl-4-oxo-N-phenyl-3-(pyridin-4-yl)-4,5-dihydro-3H-pyridazino[4,5-b]indole-1-carboxamide], the EC50 is < 10 µM.

Source of the values: US9790215B2 (FLATLEY DISCOVERY LAB, LLC, priority 2013, dated 2017).
